Source: ChEMBL document CHEMBL2375345, “New antiprotozoal agents: their synthesis and biological evaluations” (Bioorg Med Chem Lett, 2013)

How the values were obtained:
[1] = Lipophilicity, log P of the compound; assay type: physicochemical; conditions: octanol/water
[2] = Selectivity index, ratio of CC50 for human MRC5 cells to IC50 for epimastigote form of Trypanosoma cruzi Tulahuen 2; assay type: functional
[3] = tested on: Trypanosoma brucei rhodesiense; test: Antiprotozoal activity against trypomastigote form of Trypanosoma brucei rhodesiense STIB900 assessed as parasite growth inhibition after 72 hrs by Alamar blue assay; assay type: functional, organism-based; conditions: STIB900, 72 h
[4] = tested on: Leishmania infantum; test: Antiprotozoal activity against amastigote form of Leishmania infantum MHOM/MA(BE)/67 infected in mouse peritoneal macrophages assessed as reduction of intracellular parasite burden after 5 days by Giemsa staining method; assay type: functional, organism-based; conditions: MHOM/MA(BE)/67, 120 h
[5] = Selectivity index, ratio of CC50 for human MRC5 cells to IC50 for amastigote form of Leishmania infantum MHOM/MA(BE)/67; assay type: functional
[6] = Cytotoxicity against human MRC5 cells assessed as cell viability after 7 days by Alamar blue assay; assay type: cell-based
[7] = tested on: Trypanosoma cruzi; test: Antiprotozoal activity against epimastigote form of Trypanosoma cruzi Tulahuen 2 assessed as parasite growth inhibition measured at day 5; assay type: functional, organism-based; conditions: Tulahuen 2, 120 h
[8] = Selectivity index, ratio of CC50 for human MRC5 cells to IC50 for trypomastigote form of Trypanosoma brucei brucei 427; assay type: functional
[9] = Selectivity index, ratio of CC50 for human MRC5 cells to IC50 for trypomastigote form of Trypanosoma brucei rhodesiense STIB900; assay type: functional
[10] = tested on: Trypanosoma brucei brucei; test: Antiprotozoal activity against trypomastigote form of Trypanosoma brucei brucei 427 assessed as parasite growth inhibition; assay type: functional, organism-based

logP [1] | IC50 [3] | IC50 [4] | IC50 [7] | IC50 [10] | Structure (SMILES) | Ratio CC50/IC50 [2] | Ratio CC50/IC50 [5] | CC50 at 168 h [6] | Ratio CC50/IC50 [8] | Ratio CC50/IC50 [9]
6.4 | 2.61 µM | 9.51 µM | 7.01 µM | 8.17 µM | O/N=C1\c2ccccc2-c2c1c(N1CCN(c3ccccn3)CC1)nc1ccc(Br)cc21 | 9.13 | 6.73 | 64 µM | 7.34 | 24.52
– | 1.2 µM | 5.08 µM | 6.82 µM | 6.05 µM | CC(C)(C)OC(=O)NCC(=O)O/N=C1\c2ccccc2-c2c1c(N1CCN(c3ccccn3)CC1)nc1ccc(Br)cc21 | 9.38 | 12.6 | 64 µM | 10.58 | 53.33
– | 5.14 µM | 6.01 µM | 2.38 µM | 8.17 µM | CCCC(=O)O/N=C1\c2ccccc2-c2c1c(-n1ccnc1)nc1ccc(Br)cc21 | 3.45 | 1.37 | 8.23 µM | 1 | 1.6
3.86 | 5.93 µM | 12.7 µM | 1.39 µM | 18.8 µM | CC1(O)c2ccccc2-c2c1c(-n1ccnc1)nc1ccc(Br)cc21 (stereo not given) | 8.23 | 0.9 | 11.5 µM | 0.61 | 1.93
4.09 | 7.11 µM | 21.1 µM | 0.93 µM | 29 µM | CC(=O)OC1(C)c2ccccc2-c2c1c(-n1ccnc1)nc1ccc(Br)cc21 (stereo not given) | 34.65 | 1.52 | 32.2 µM | 1.11 | 4.53
5.58 | 5.81 µM | 5.66 µM | 1.46 µM | 8.11 µM | CCCCC(=O)OC1(C)c2ccccc2-c2c1c(-n1ccnc1)nc1ccc(Br)cc21 (stereo not given) | 14.91 | 3.84 | 21.8 µM | 2.68 | 3.74
– | 1.65 µM | 6.96 µM | 6.21 µM | 2.04 µM | CC(NC(=O)OC(C)(C)C)C(=O)O/N=C1\c2ccccc2-c2c1c(N1CCN(c3ccccn3)CC1)nc1ccc(Br)cc21 (stereo not given) | 4.33 | 3.86 | 26.9 µM | 13.19 | 16.3
– | 1.36 µM | 5.66 µM | 7.87 µM | 2.16 µM | CC(C)(C)OC(=O)NC(C(=O)O/N=C1\c2ccccc2-c2c1c(N1CCN(c3ccccn3)CC1)nc1ccc(Br)cc21)C(C)(C)C (stereo not given) | 4.52 | 6.29 | 35.6 µM | 16.48 | 26.17
– | 1.44 µM | 9.51 µM | 7.39 µM | 2.4 µM | CSCCC(NC(=O)OC(C)(C)C)C(=O)O/N=C1\c2ccccc2-c2c1c(N1CCN(c3ccccn3)CC1)nc1ccc(Br)cc21 (stereo not given) | 8.66 | 6.73 | 64 µM | 26.66 | 44.44
8.3 | 1.52 µM | 3.17 µM | 7.52 µM | 7.33 µM | CC(C)CC(NC(=O)OCC1c2ccccc2-c2ccccc21)C(=O)O/N=C1\c2ccccc2-c2c1c(N1CCN(c3ccccn3)CC1)nc1ccc(Br)cc21 (stereo not given) | 1.8 | 4.28 | 13.6 µM | 1.85 | 8.94
– | 4.33 µM | 12.7 µM | 7.38 µM | 7.31 µM | CC(C)(C)OC(=O)N1CCCC1C(=O)O/N=C1\c2ccccc2-c2c1c(-n1ccnc1)nc1ccc(Br)cc21 (stereo not given) | 1.08 | 0.63 | 8 µM | 1.09 | 1.85
7.69 | 1.46 µM | 8.11 µM | 3.7 µM | 2.18 µM | CC(O)c1cc(F)ccc1Oc1nc2ccc(NS(=O)(=O)c3cccc(C(F)(F)F)c3)cc2cc1Cc1ccccc1 (stereo not given) | – | – | 8 µM | – | –
– | 1.22 µM | 2.16 µM | 2 µM | 2.01 µM | O=[N+]([O-])c1ccc2nc(Oc3ccc(F)cc3C(O)CN3CCCCC3)c(Cc3ccccc3)cc2c1 (stereo not given) | 2.2 | 1.29 | – | 4.31 | 8.8
– | 0.86 µM | 30.1 µM | 64 µM | 2.03 µM | COc1cccc(N2CCN(CC(O)COC3(C)c4ccccc4-c4c3c(N3CCN(C(c5ccccc5)c5ccccc5)CC3)nc3ccc(Br)cc43)CC2)c1 (stereo not given) | 0.96 | 2.04 | 61.4 µM | 30.26 | 71.44
5.23 | 5.49 µM | 27.3 µM | 8.37 µM | 8.57 µM | CC1(OCC2CO2)c2ccccc2-c2c1c(C(F)(F)F)nc1ccc(Br)cc21 (stereo not given) | 0.48 | 0.14 | 4 µM | 0.47 | 0.73
– | 3.06 µM | 8.11 µM | 12.3 µM | 7.56 µM | CC(C)(C)OC(=O)N1CCCC(C(=O)O/N=C2\c3ccccc3-c3c2c(C(F)(F)F)nc2ccc(Br)cc32)C1 (stereo not given) | 0.47 | 0.72 | 5.84 µM | 0.77 | 1.91
3.68 | 1.17 µM | 6.01 µM | 2.16 µM | 2.03 µM | COc1nc2ccc(Br)cc2c2c1C(C)(OCC(O)Cn1ccnc1)c1ccccc1-2 (stereo not given) | 3.7 | 1.33 | 8 µM | 3.94 | 6.83
7.5 | 1.25 µM | 5.08 µM | 5.35 µM | 2.31 µM | COc1nc2ccc(Br)cc2c2c1C(C)(OCC(O)Cn1ccc(-c3cccc(C(F)(F)F)c3)n1)c1ccccc1-2 (stereo not given) | 4.5 | 4.74 | 24.1 µM | 10.43 | 19.29
4.91 | 5.28 µM | 64 µM | 7.42 µM | 8.23 µM | COc1nc2ccc(Br)cc2c2c1C(C)(OC(=O)N(C)C)c1ccccc1-2 (stereo not given) | 8.62 | 1 | 64 µM | 7.77 | 12.12
6.01 | 5.98 µM | 20.3 µM | 6.87 µM | 7.69 µM | O=C1c2ccccc2-c2c1c(N1CCN(c3ccccn3)CC1)nc1ccc(Br)cc21 | 0.63 | 0.21 | 4.33 µM | 0.56 | 0.72
– | 0.44 µM | 50.8 µM | 6.96 µM | 2.16 µM | COc1nc2ccc(Br)cc2cc1C(c1ccccc1)n1cnc([N+](=O)[O-])c1 (stereo not given) | 9.19 | 1.25 | 64 µM | 29.62 | 145.45
– | 2.08 µM | 8 µM | 6.01 µM | 2.4 µM | COc1cccc(-c2ccn(CC(O)c3cc(F)ccc3Oc3nc4ccc([N+](=O)[O-])cc4cc3Cc3ccccc3)n2)c1 (stereo not given) | – | – | 64 µM | – | 30.8
– | 0.71 µM | 20.3 µM | 64 µM | 2.12 µM | COc1ccc(-c2ccn(CC(O)c3cc(F)ccc3Oc3nc4ccc([N+](=O)[O-])cc4cc3Cc3ccccc3)n2)cc1 (stereo not given) | 33.16 | 3.15 | – | 31.37 | 31.52
7.86 | 0.53 µM | 6.82 µM | 14.7 µM | 2 µM | COc1cccc(NC(=S)Nc2ccc3nc(Oc4ccc(F)cc4C(C)O)c(Cc4ccccc4)cc3c2)c1 (stereo not given) | – | 8 | 64 µM | 26.66 | –
7.91 | 2.03 µM | 20.3 µM | 1.93 µM | 2.04 µM | CC(c1cc(F)ccc1Oc1nc2ccc(-n3cc(-c4ccccc4)nn3)cc2cc1Cc1ccccc1)n1ccnc1 (stereo not given) | – | 3.15 | 64 µM | 30.18 | –
6.72 | 2.07 µM | 8.11 µM | 6.23 µM | 2.04 µM | COc1cccc(NC(=O)Nc2ccc3nc(Oc4ccc(F)cc4C(C)O)c(Cc4ccccc4)cc3c2)c1 (stereo not given) | – | – | 64 µM | – | 30.18
7.86 | 0.53 µM | 5.28 µM | 4.33 µM | 1.79 µM | COc1ccccc1NC(=S)Nc1ccc2nc(Oc3ccc(F)cc3C(C)O)c(Cc3ccccc3)cc2c1 (stereo not given) | – | 5.22 | 16 µM | – | 32.31
